These results are taken from US20230089368A1, “POLYAROMATIC UREA DERIVATIVES AND THEIR USE IN THE TREATMENT OF MUSCLE DISEASES” (ANAGENESIS BIOTECHNOLOGIES S.A.S., priority 2019, published 2023).

Test [1] deals with muscle progenitors (hMP) from DMD hiPSC or WT hiPSC. The experiment in a line: Myotube assay: myogenic activity (total myotube area per well). Format: cell-based, human. The following applies: Homo sapiens, 72 h; myotube assay, compounds incubated 3 days; read-out: MA (normalized Myotube Area, efficacy). The gist of the method: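 DMD or WT hiPSC-derived muscle progenitors plated on collagen I in K5 medium with 5 μM Y-27632, treated with compound (1.5 nM–30 μM) for 3 days at 37° C. Cells were fixed, stained for alpha-actinin and imaged for total myotube area per well. EC50 and normalized myotube area (MA) taken from duplicate-averaged data.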

For test [2], the system named is satellite-like cells (Pax7-positive cells) in hMP. Description: Myotube assay: Pax7-positive (satellite-like) cell quantification. Format: cell-based, human. More on the design: key to Pax7% (pool of Pax7-positive cells) / Pax7: −: Depletes the pool of cells, while positively affects the myotubes; +: Maintains or increases the pool of cells, with at least 1 of the highest concentration known to be cytotoxic; ++: Maintains or increases the pool of cells, without any toxicity. The following applies: myotube assay, compounds incubated 3 days. The gist of the method:
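DMD hiPSC-derived muscle progenitors (hMP) proliferated 4 days, then plated on collagen I in K5 medium with 5 μM Y-27632. Compound added at 1.5 nM–30 μM for 3 days at 37° C, then cells fixed and immunostained. Pax7-positive cells counted as percentage of total nuclei, duplicates averaged.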

Consider `CC(C)(C)c1cc(NC(=O)Nc2cc(Oc3ccnc4[nH]c(=O)cnc34)ccc2F)n(-c2ccccc2)n1` [(cq), 1-(3-(tert-butyl)-1-phenyl-1H-pyrazol-5-yl)-3-(2-fluoro-5-((3-oxo-3,4-dihydropyrido[2,3-b]pyrazin-8-yl)oxy)phenyl)urea], for which, in test [1], the Emax is no less than 75%. For the same compound, the “Pax7% (pool of Pax7-positive cells)” value in test [2] is on record as “++”.

For the compound `CSc1cc(Oc2ccnc3[nH]c(=O)cnc23)ccc1NC(=O)Nc1cc(C(C)(C)C)nn1-c1ccc(OCCCN(C)C)cc1` [(cr), 1-(3-(tert-butyl)-1-(4-(3-(dimethylamino)propoxy)phenyl)-1H-pyrazol-5-yl)-3-(2-(methylthio)-4-((3-oxo-3,4-dihydropyrido[2,3-b]pyrazin-8-yl)oxy)phenyl)urea], in test [1], the Emax is no less than 75%. Further, the “Pax7% (pool of Pax7-positive cells)” value in test [2] was “+”.

Consider `CC(C)(C)c1cc(NC(=O)Nc2ccc(C(=O)c3ccncc3)cc2)n(-c2ccccc2)n1` [(cs), 1-(3-(tert-butyl)-1-phenyl-1H-pyrazol-5-yl)-3-(4-isonicotinoylphenyl)urea], for which the Emax in test [1] was 25 to 50%. In test [2], the “Pax7% (pool of Pax7-positive cells)” value was “+”.

As for `CSc1cc(Oc2ccnc3c2OCC(=O)N3)ccc1NC(=O)Nc1cc(C(C)(C)C)nn1-c1ccccc1` [(ct), 1-(3-(tert-butyl)-1-phenyl-1H-pyrazol-5-yl)-3-(2-(methylthio)-4-((3-oxo-3,4-dihydro-2H-pyrido[3,2-b][1,4]oxazin-8-yl)oxy)phenyl)urea], the Emax in test [1] was no less than 75%. Besides, in test [2], the “Pax7% (pool of Pax7-positive cells)” value was “+”.

As for `CC(C)(C)c1cnc(NC(=O)Nc2ccc(Oc3ccnc4c3CCC(=O)N4)c3ccccc23)s1` [(cu), 1-(5-(tert-butyl)thiazol-2-yl)-3-(4-((7-oxo-5,6,7,8-tetrahydro-1,8-naphthyridin-4-yl)oxy)naphthalen-1-yl)urea], the Emax in test [1] is no less than 75%. In test [2], the “Pax7% (pool of Pax7-positive cells)” value is listed as “++”.

With `CCOC(=O)Nc1cc(Oc2ccc(NC(=O)Nc3cc(C(C)(C)C)nn3-c3ccccc3)c(SC)c2)ccn1` [(cv), Ethyl (4-(4-(3-(3-(tert-butyl)-1-phenyl-1H-pyrazol-5-yl)ureido)-3-(methylthio)phenoxy)pyridin-2-yl)carbamate], in test [1], the Emax is no less than 75%. In addition, in test [2], the “Pax7% (pool of Pax7-positive cells)” value was “+”.

As to `CC(C)(C)c1cc(NC(=O)Nc2cccc(Oc3ccnc4[nH]c(=O)cnc34)c2F)n(-c2ccccc2)n1` [(cw), 1-(3-(tert-butyl)-1-phenyl-1H-pyrazol-5-yl)-3-(2-fluoro-3-((3-oxo-3,4-dihydropyrido[2,3-b]pyrazin-8-yl)oxy)phenyl)urea], the Emax in test [1] is no less than 75%. Moreover, the “Pax7% (pool of Pax7-positive cells)” value in test [2] was “++”.

As for `CSc1cc(Oc2ccnc(NC(=O)OCc3ccccc3)c2)ccc1NC(=O)Nc1cc(C(C)(C)C)nn1-c1ccccc1` [(cx), Benzyl (4-(4-(3-(3-(tert-butyl)-1-phenyl-1H-pyrazol-5-yl)ureido)-3-(methylthio)phenoxy)pyridin-2-yl)carbamate], the Emax in test [1] was no less than 75%. Besides, the “Pax7% (pool of Pax7-positive cells)” value in test [2] is “+”.

Turning to `CSc1cc(Oc2ccnc3c2OCCN3)ccc1NC(=O)Nc1cc(C(C)(C)C)nn1-c1ccccc1` [(cy), 1-(3-(tert-butyl)-1-phenyl-1H-pyrazol-5-yl)-3-(4-((3,4-dihydro-2H-pyrido[3,2-b][1,4]oxazin-8-yl)oxy)-2-(methylthio)phenyl)urea], in test [1], the Emax was no less than 75%. In addition, the “Pax7% (pool of Pax7-positive cells)” value in test [2] is “+”.

Regarding `CSc1cc(Oc2ccnc3c2CCC(=O)N3)ccc1NC(=O)Nc1cc(C(C)(C)C)no1` [(cz), 1-(3-(tert-butyl)isoxazol-5-yl)-3-(2-(methylthio)-4-((7-oxo-5,6,7,8-tetrahydro-1,8-naphthyridin-4-yl)oxy)phenyl)urea], the Emax in test [1] is no less than 75%. In addition, the “Pax7% (pool of Pax7-positive cells)” value in test [2] is “+”.

For the compound `O=C(Nc1ccc(Oc2ccnc3[nH]c(=O)cnc23)cc1F)Nc1cc(C2(C(F)(F)F)CC2)nn1-c1ccccc1` [(d), 1-(2-fluoro-4-((3-oxo-3,4-dihydropyrido[2,3-b]pyrazin-8-yl)oxy)phenyl)-3-(1-phenyl-3-(1-(trifluoromethyl)cyclopropyl)-1H-pyrazol-5-yl)urea], in test [1], the Emax was 50 to 75%. Moreover, the “Pax7% (pool of Pax7-positive cells)” value in test [2] is recorded as “+”.

`CCOC(=O)Nc1cc(Oc2ccc(NC(=O)Nc3cc(C(C)(C)C)nn3-c3ccccc3)c3ccccc23)ccn1` [(da), Ethyl (4-((4-(3-(3-(tert-butyl)-1-phenyl-1H-pyrazol-5-yl)ureido)naphthalen-1-yl)oxy)pyridin-2-yl)carbamate]: the Emax in test [1] was no less than 75%. In addition, the “Pax7% (pool of Pax7-positive cells)” value in test [2] is recorded as “+”.

With `CCOC(=O)Nc1cc(Oc2ccc(NC(=O)Nc3cc(C(C)(C)C)no3)c3ccccc23)ccn1` [(db), Ethyl (4-((4-(3-(3-(tert-butyl)isoxazol-5-yl)ureido)naphthalen-1-yl)oxy)pyridin-2-yl)carbamate], in test [1], the Emax is no less than 75%. Further, the “Pax7% (pool of Pax7-positive cells)” value in test [2] is on record as “+”.

As to `CCOC(=O)Nc1cc(Oc2ccc(NC(=O)Nc3ncc(C(C)(C)C)s3)c3ccccc23)ccn1` [(dc), Ethyl (4-((4-(3-(5-(tert-butyl)thiazol-2-yl)ureido)naphthalen-1-yl)oxy)pyridin-2-yl)carbamate], the Emax in test [1] is no less than 75%. Further, in test [2], the “Pax7% (pool of Pax7-positive cells)” value was “+”.

Regarding `CSc1cc(Oc2ccnc3[nH]c(=O)cnc23)ccc1NC(=O)Nc1cc(C(C)(C)C)nn1-c1ccc(CN2CCOCC2)cc1` [(dd), 1-(3-(tert-butyl)-1-(4-(morpholinomethyl)phenyl)-1H-pyrazol-5-yl)-3-(2-(methylthio)-4-((3-oxo-3,4-dihydropyrido[2,3-b]pyrazin-8-yl)oxy)phenyl)urea], the Emax in test [1] is no less than 75%. For the same compound, the “Pax7% (pool of Pax7-positive cells)” value in test [2] is given as “+”.

`CCOC(=O)Nc1cc(Oc2ccc(NC(=O)Nc3cc(C(C)(C)C)no3)c(SC)c2)ccn1` [(de), Ethyl (4-(4-(3-(3-(tert-butyl)isoxazol-5-yl)ureido)-3-(methylthio)phenoxy)pyridin-2-yl)carbamate]: the Emax in test [1] was no less than 75%. For the same compound, the “Pax7% (pool of Pax7-positive cells)” value in test [2] was “+”.

For the compound `CCOC(=O)Nc1cc(Oc2ccc(NC(=O)Nc3ncc(C(C)(C)C)s3)c(SC)c2)ccn1` [(df), Ethyl (4-(4-(3-(5-(tert-butyl)thiazol-2-yl)ureido)-3-(methylthio)phenoxy)pyridin-2-yl)carbamate], the Emax in test [1] was no less than 75%. In addition, the “Pax7% (pool of Pax7-positive cells)” value in test [2] is “+”.

`CC(C)(C)c1cc(NC(=O)Nc2ccc(Oc3ccnc4c3CCC(=O)N4)c3ccccc23)on1` [(dg), 1-(3-(tert-butyl)isoxazol-5-yl)-3-(4-((7-oxo-5,6,7,8-tetrahydro-1,8-naphthyridin-4-yl)oxy)naphthalen-1-yl)urea]: the Emax in test [1] was no less than 75%. Also, the “Pax7% (pool of Pax7-positive cells)” value in test [2] is reported as “+”.

`CSc1cc(Oc2ccnc3[nH]c(=O)cnc23)ccc1NC(=O)Nc1cc(C(C)(C)C)on1` [(dh), 1-(5-(tert-butyl)isoxazol-3-yl)-3-(2-(methylthio)-4-((3-oxo-3,4-dihydropyrido[2,3-b]pyrazin-8-yl)oxy)phenyl)urea]: in test [1], the Emax was no less than 75%. Also, the “Pax7% (pool of Pax7-positive cells)” value in test [2] is “+”.

As to `CCOC(=O)Nc1cc(Oc2ccc(NC(=O)Nc3cc(C(C)(C)C)on3)c(SC)c2)ccn1` [(di), Ethyl (4-(4-(3-(5-(tert-butyl)isoxazol-3-yl)ureido)-3-(methylthio)phenoxy)pyridin-2-yl)carbamate], in test [1], the Emax is no less than 75%. Further, in test [2], the “Pax7% (pool of Pax7-positive cells)” value is listed as “++”.

Regarding `CC(=O)Nc1cc(Oc2ccc(NC(=O)Nc3cc(C(C)(C)C)nn3-c3ccccc3)c3ccccc23)ccn1` [(dj), N-(4-((4-(3-(3-(tert-butyl)-1-phenyl-1H-pyrazol-5-yl)ureido)naphthalen-1-yl)oxy)pyridin-2-yl)acetamide], in test [1], the Emax was no less than 75%. For the same compound, the “Pax7% (pool of Pax7-positive cells)” value in test [2] is recorded as “+”.

In the case of `CSc1cc(Oc2ccncc2)ccc1NC(=O)Nc1cc(C(C)(C)C)nn1-c1ccccc1` [(dk), 1-(3-(tert-butyl)-1-phenyl-1H-pyrazol-5-yl)-3-(2-(methylthio)-4-(pyridin-4-yloxy)phenyl)urea], the Emax in test [1] fell in the range of 25 to 50%. Also, the “Pax7% (pool of Pax7-positive cells)” value in test [2] is given as “++”.

`CSc1cc(Oc2ccnc(NS(C)(=O)=O)c2)ccc1NC(=O)Nc1cc(C(C)(C)C)no1` [(dl), N-(4-(4-(3-(3-(tert-butyl)isoxazol-5-yl)ureido)-3-(methylthio)phenoxy)pyridin-2-yl)methanesulfonamide]: the Emax in test [1] is no less than 75%. Besides, the “Pax7% (pool of Pax7-positive cells)” value in test [2] is recorded as “++”.

As for `CSc1cc(Oc2ccnc3[nH]c(=O)[nH]c23)ccc1NC(=O)Nc1cc(C(C)(C)C)nn1-c1ccccc1` [(dm), 1-(3-(tert-butyl)-1-phenyl-1H-pyrazol-5-yl)-3-(2-(methylthio)-4-((2-oxo-2,3-dihydro-1H-imidazo[4,5-b]pyridin-7-yl)oxy)phenyl)urea], the Emax in test [1] was no less than 75%. The “Pax7% (pool of Pax7-positive cells)” value in test [2] was “−”.

As for `CSc1cc(NC(=O)Nc2cc(C(C)(C)C)nn2-c2ccccc2)ccc1Oc1ccnc2[nH]c(=O)cnc12` [(dn), 1-(3-(tert-butyl)-1-phenyl-1H-pyrazol-5-yl)-3-(3-(methylthio)-4-((3-oxo-3,4-dihydropyrido[2,3-b]pyrazin-8-yl)oxy)phenyl)urea], the Emax in test [1] is no less than 75%. Also, in test [2], the “Pax7% (pool of Pax7-positive cells)” value is “+”.
